According to patent US7687472B2, “Methods and compositions for treating hyperglycemic, hyperlipidemic, or hyperinsulinemic disorders” (Ohio University, priority 2004, dated 2010):

What was measured:
Glut4 = Glut4 translocation by immunostaining and confocal microscopy in 3T3-L1 adipocytes; assay type: cell-based; details: FIG. 3
Description: (§1) FIG. 3 illustrates induced Glut4 translocation. 3T3-L1 adipocytes were either uninduced, or induced by 1 μM insulin, or 30 μM 6Cl-α-TGQ. The treated cells were immunostained with an anti-Glut4 antibody followed with the secondary antibody (Fluorescein (FITC)-conjugated affinipure F(ad′)2 fragment Donkey anti-Mouse IgG). The cells were then mounted for microscopic visualization. The immunostained cells were visualized with a Zeiss LSM510 confocal microscope at wavelength of 488 nm for excitation and 520 nm for emission.
as §1, with “The” for “FIG. 3 illustrates induced Glut4 translocation. 3T3-L1 adipocytes were either uninduced, or induced by 1 μM insulin, or 30 μM 6Cl-α-TGQ. The”

IR = IR phosphorylation by Western blot in CHO-IR cells; assay type: cell-based; details: anti-phosphorylated IR antibody
Description: (§2) FIG. 6 illustrates that novel TGQ compounds stimulate IR and Akt phosphorylation in CHO-IR cells and Akt phosphorylation in 3T3-L1 fat cells. CHO-IR cells or 3T3-L1 adipocytes were induced under conditions as shown. Total protein was isolated from the cells and subjected SDS-PAGE and subsequently transferred to a […] membrane. The proteins on the membrane were detected by anti-phosphorylated IR or Akt antibodies. […] Thirty to 60 μg of total protein and the biotinylated protein marker was mixed with SDS sample buffer and heated at 95-100° C. for 5 minutes. Then, each sample and a marker were subjected to 8% SDS POLYACRYLAMIDE GEL ELECTROPHORESIS (SDS-PAGE). After electrophoresis, the proteins on the gel were transferred to a nitrocellulose. The nitrocellulose membrane was blocked, and then incubated with the desired primary antibody (specifically against either phosphorylated form of IR or Akt) overnight at 4° C. with gentle agitation. After overnight incubation, the membrane was washed, and then incubated with the HRP-conjugated secondary antibody for 1 hour at room temperature. Then, the membrane was washed, the proteins on the membrane were detected by a Western blotting LumiGLO system (Cell Signaling Tech, Inc) and finally visualized by exposing the membrane to an x-ray film in a cassette for a proper time, usually from 1 to 10 minutes.

Akt = Akt phosphorylation by Western blot in CHO-IR cells and 3T3-L1 adipocytes; assay type: cell-based; details: CHO-IR cells or 3T3-L1 adipocytes; anti-phosphorylated Akt antibody
Description: as §2

3T3-L1 preadipocytes [1] = assay: MDI-induced differentiation of 3T3-L1 preadipocytes into adipocytes, measured by glucose uptake; assay type: cell-based; details: MDI plus 20 μM compound; ten days after induction; FIG. 4
Description: FIG. 4 illustrates adipocyte differentiation induced by MDI. […] Ten days after the induction, cells were assayed for their respective ability to take up glucose from the media by a radioactive glucose uptake assay. Each sample (condition) was in triplicate. The concept that adipocyte differentiation can be indirectly measured by glucose uptake was based on the observation that only differentiated adipocytes can take up glucose through a Glut4-mediated pathway while undifferentiated preadipocytes cannot.
To determine the effective concentration of the compounds of Formula I, II, or III to use in preventing adipogenesis in vitro, undifferentiated preadipocytes are incubated either with a differentiation-induction cocktail, comprised of 3-isobutyl-1-methylxanthine, dexamethasone, and insulin (MDI); or with MDI plus the test compound. After about 10 days MDI induces differentiation, which is clearly visible as the change from fibroblast-like preadipocytes to round-shaped, fat vesicle-containing adipocytes. […]
Ten days after the induction, cells were assayed for their respective ability to take up glucose from the media by a standard radioactive glucose uptake assay. […] The adipocyte differentiation can be measured by glucose uptake because only differentiated adipocyte can take up glucose through Glut4-mediated pathway while undifferentiated preadipocytes cannot.

3T3-L1 adipocytes = assay: Glucose uptake ([3H] 2-deoxy-D-glucose) assay in 3T3-L1 adipocytes; assay type: cell-based; details: for glucose transport inducing activity compared with α-PGG: α-PGG 30 μM
Description: Glucose uptake activity in cells may be analyzed by measuring the uptake of 2-deoxy-D-[3H] glucose using a standard assay. Confluent 3T3-L1 adipocytes grown in 12-well plates are washed twice with serum-free DMEM and incubated with 1 mL of the same medium at 37° C. for 2 h. The cells are washed 3 times with Krebs-Ringer-Hepes (KRP) buffer and incubated with 0.9 mL KRP buffer at 37° C. for 30 min. Insulin (positive control) or the compounds of Formula I, II, or III (experimentals) are then added at pre-determined concentrations and adipocytes are incubated at 37° C. for 15 min. Glucose uptake is initiated by addition of 0.1 mL KRP buffer and 37 MBq/L 2-deoxy-D-[^3H] glucose and 1 mmol/L glucose as final concentrations. After 10 min, glucose uptake is terminated by washing the cells 3 times with cold PBS. The cells are lysed with 0.7 mL of 1% Triton X-100 at 37° C. for 20 min. The radioactivity retained by the cell lysates is determined by a scintillation counter. The dosage that induces the maximal glucose uptake can be selected among the experimental samples.
6Cl-α-TGQ and 6Cl-β-TGQ were synthesized as described above. α-TGQ was synthesized using methods analogous to the preparation of 6Cl-α-TGQ (Examples 1 and 2) starting from commercially available 6-deoxy-D-glucose. Alpha-pentagalloylglucose (α-PGG) was obtained. 3T3-L1 preadipocytes grown in 24-well plates were induced by MDI until they were differentiated into adipocytes. Adipocytes were washed twice with serum-free DMEM and incubated with 0.5 ml of the same medium in 10% C02 at 37 ° C. for 2 hours. The cells were washed 3 times with Kerbs-Ringer-HEPES (KRP) buffer (136 mM NaCl, 4.7 mM KCl, 1.25 mM CaCl2, 1.25 mM MgSO4 and 10 mM sodium phosphate buffer at pH 7.4) and then incubated with 0.45 ml KRP buffer at 37 ° C. for 30 minutes. Glucose transport inducing agents were individually added to the cells at predetermined concentrations and each condition was duplicated or triplicated, then the adipocytes were incubated at 37 ° C. for 15 minutes. Glucose uptake was initiated by the addition of 0.1 ml of KPR buffer supplemented with 1 μCi/ml [^3H] 2-deoxy-D-glucose and 1 mM cold glucose as the final concentration to the cells. After 10 min, the medium was aspirated and the plates were washed with ice-cold PBS three times to terminate the induced glucose uptake. The cells were lysed with 0.45 ml of 1% triton X-100 at 37 ° C. for 20 min. The radioactivity taken up by the cells was determined in a solution of 0.4 ml of the cell lysates and 5 ml of scintillation liquid using a scintillation counter (Beckman Instruments).
6Br-α-TGQ and 6Br-β-TGQ were chemically synthesized using a preparation analogous to the preparation of 6Cl-TGQ (Examples 1, 2 and 3) starting from commercially available 6-bromo-D-glucose. 6Cl-α-TGQ was synthesized as described above. Alpha-pentagalloylglucose (α-PGG) was obtained. Confluent 3T3-L1 adipocytes were purchased from ATCC and grown in 12-well plates are washed twice with serum-free DMEM and incubated with 1 mL of the same medium at 37° C. for 2 h. The cells are washed 3 times with Krebs-Ringer-Hepes (KRP) buffer and incubated with 0.9 mL KRP buffer at 37° C. for 30 min.
Glucose uptake was initiated by addition of 0.1 mL KRP buffer and 37 MBq/L 2-deoxy-D-[^3H] glucose and 1 mmol/L glucose as final concentrations, and the ^3H labeled glucose was then added to the cells for 15 min. […] The radioactivity retained by the cell lysates was determined by a scintillation counter. […]

3T3-L1 preadipocytes [2] = details: α-PGG used at 20 μM with MDI; cited from earlier work

For “6-chloro-1,2,3,4-tetragalloyl-D-quinovopyranose [6Cl-TGQ]”, the “Glut4 translocation to the cell membrane” value (Glut4; 30 μM compound) was “induced Glut4 translocation to the cell membrane”, the IR phosphorylation (IR) was “can induce IR and Akt phosphorylation” and the Akt phosphorylation (Akt) was “can induce IR and Akt phosphorylation”.
In the case of “6-chloro-1,2,3,4-tetragalloyl-D-quinovopyranose [6Cl-β-TGQ]”, the “inhibition of adipocyte differentiation” value (3T3-L1 preadipocytes [1]) is reported as “inhibit adipocyte differentiation”.
In the case of O=C(O[C@H]1O[C@H](CCl)[C@@H](OC(=O)c2cc(O)c(O)c(O)c2)[C@H](OC(=O)c2cc(O)c(O)c(O)c2)[C@H]1OC(=O)c1cc(O)c(O)c(O)c1)c1cc(O)c(O)c(O)c1 [6Cl-α-TGQ, 6-chloro-α-1,2,3,4-tetragallolyl-D-quinovopyranose], the “more glucose transported than the insulin controls” value (3T3-L1 adipocytes; 30 μM compound, insulin control 1 μM, FIG. 2) is reported as 10%, the “glucose transport activity compared with insulin” value (3T3-L1 adipocytes; insulin 1 μM, FIG. 2) is reported as “as active as insulin” and the “glucose transport inducing activity compared with α-PGG” value (3T3-L1 adipocytes; FIG. 2) is reported as “more active than pentagalloyl-α-D-glucopyranose (α-PGG)”. For the same molecule, the “glucose transport inducing activity compared with α-PGG” value (3T3-L1 adipocytes; FIG. 2, listed as 6Cl-α: TGQ) was “more active than α-PGG”, the “Glut4 translocation to the cell membrane” value (Glut4; 30 μM compound) was “induced Glut4 translocation to the cell membrane” and the “inhibition of adipocyte differentiation” value (3T3-L1 preadipocytes [1]) was “inhibit adipocyte differentiation”.
In the case of O=C(OC[C@H]1O[C@H](OC(=O)c2cc(O)c(O)c(O)c2)[C@H](OC(=O)c2cc(O)c(O)c(O)c2)[C@@H](OC(=O)c2cc(O)c(O)c(O)c2)[C@@H]1OC(=O)c1cc(O)c(O)c(O)c1)c1cc(O)c(O)c(O)c1 [α-PGG, pentagalloyl-α-D-glucopyranose], the “inhibition of adipocyte differentiation (known)” value (3T3-L1 preadipocytes [2]) is given as “known to inhibit the differentiation”.
With CC1OC(OC(=O)c2cc(O)c(O)c(O)c2)C(OC(=O)c2cc(O)c(O)c(O)c2)C(OC(=O)c2cc(O)c(O)c(O)c2)C1OC(=O)c1cc(O)c(O)c(O)c1 (stereo not drawn) [α-TGQ] the “glucose transport stimulatory activity” value (3T3-L1 adipocytes; various concentrations) was “active”.
For “insulin: the hormone which regulates glucose utilization; positive control”, the “Glut4 translocation to the cell membrane” value (Glut4; 1 μM insulin) was “induced Glut4 translocation to the cell membrane”.
